Laboratory results reported in patent US20260055097A9, “NRF2 PROTEIN DEGRADERS” (Ganymede Oncology, Inc., priority 2022, published 2026).
Like-named read-outs stand apart in the source and are kept apart here.

Legend:
Type in all cases: cell-based
A549 = assay: Cancer cell viability, A549 (CellTiter-Glo); conditions: Homo sapiens, 72 h, A549 cells, 3 days, read-out: Cellular IC50 (μM) A549
Protocol: Representative Compounds of the Disclosure were tested in A549 (Vendor: ATCC; Cat #CCL-185; Description: lung, carcinoma) and/or LK-2 (Vendor: Riken; Cat #RCB1970; Description: lung, squamous cell carcinoma) cellular viability assays according to the following general protocol. • 1. Observed the cells under microscope. • 2. Aspirated the media and added 5 mL trypsin and incubate for 3 mins. • 3. Added 10 mL fresh media and harvested all the cells in to 15 mL tubes. • 4. Centrifuged the cells at 1000 rpm for 5 mins. • 5. Re-suspended the cells with 11 mL media and took 1 mL to determine the cell number and viability. • 6. Prepared cells suspension at 20 K/mL (A549) or 35 K/mL (LK-2) • 7. Seeded the cells into 96-well plate and incubated for overnight. • 8. […] After 3 days, took out the plates from the incubator and observed the cells under microscope. • 10. Passed a film at the bottom of the plates. • 11. Equilibrated the plate and its contents at room temperature for approximately 30 minutes. • 12. Thawed the CellTiter-Glo® Buffer and equilibrated to room temperature prior to use. • 13. Equilibrated the lyophilized CellTiter-Glo® Substrate to room temperature prior to use. • 14. Transferred 100 ml of CellTiter-Glo® Buffer into the amber bottle containing CellTiter-Glo® Substrate to reconstituted the lyophilized enzyme/substrate mixture. • 15. Mixed by gently vortexing, swirling or inverting the contents to obtain a homogeneous solution. • 16. Added 100 μL CellTiter-Glo® Reagent into each well • 17. Mixed contents for 15 minutes on an orbital shaker to induce cell lysis. • 18. Recorded luminescence with EnSpire machine. • 19. Passed the raw data into the file and analyzed the data with XLfit software.

LK-2 = assay: Cancer cell viability, LK-2 (CellTiter-Glo); conditions: LK-2 cells, 3 days, read-out: Cellular IC50 (μM) LK-2
Protocol: Representative Compounds of the Disclosure were tested in A549 (Vendor: ATCC; Cat #CCL-185; Description: lung, carcinoma) and/or LK-2 (Vendor: Riken; Cat #RCB1970; Description: lung, squamous cell carcinoma) cellular viability assays according to the following general protocol. • 1. Observed the cells under microscope. • 2. Aspirated the media and added 5 mL trypsin and incubate for 3 mins. • 3. Added 10 mL fresh media and harvested all the cells in to 15 mL tubes. • 4. Centrifuged the cells at 1000 rpm for 5 mins. • 5. Re-suspended the cells with 11 mL media and took 1 mL to determine the cell number and viability. • 6. Prepared cells suspension at 20 K/mL (A549) or 35 K/mL (LK-2) • 7. Seeded the cells into 96-well plate and incubated for overnight. • 8. Added compounds into each well with a HPD300 machine (nine three-fold dilutions typically starting at 30 µM final concentration) and incubated for 3 days. • 9. After 3 days, took out the plates from the incubator and observed the cells under microscope. • 10. Passed a film at the bottom of the plates. • 11. Equilibrated the plate and its contents at room temperature for approximately 30 minutes. • 12. Thawed the CellTiter-Glo® Buffer and equilibrated to room temperature prior to use. • 13. Equilibrated the lyophilized CellTiter-Glo® Substrate to room temperature prior to use. • 14. Transferred 100 ml of CellTiter-Glo® Buffer into the amber bottle containing CellTiter-Glo® Substrate to reconstituted the lyophilized enzyme/substrate mixture. • 15. Mixed by gently vortexing, swirling or inverting the contents to obtain a homogeneous solution. • 16. Added 100 μL CellTiter-Glo® Reagent into each well • 17. Mixed contents for 15 minutes on an orbital shaker to induce cell lysis. • 18. Recorded luminescence with EnSpire machine. • 19. Passed the raw data into the file and analyzed the data with XLfit software.

Nrf2 = target: T1, Nrf2 (Homo sapiens, UniProt Q16236); assay: Nrf2 degradation in A549 HiBiT-Nrf2 cells, Nano-Glo HiBiT lytic detection (HiBiT readout); set-up: host or cells: A549 HiBiT-Nrf2 cells (engineered line bought from Promega)
T1 sequence (Q16236 1-605): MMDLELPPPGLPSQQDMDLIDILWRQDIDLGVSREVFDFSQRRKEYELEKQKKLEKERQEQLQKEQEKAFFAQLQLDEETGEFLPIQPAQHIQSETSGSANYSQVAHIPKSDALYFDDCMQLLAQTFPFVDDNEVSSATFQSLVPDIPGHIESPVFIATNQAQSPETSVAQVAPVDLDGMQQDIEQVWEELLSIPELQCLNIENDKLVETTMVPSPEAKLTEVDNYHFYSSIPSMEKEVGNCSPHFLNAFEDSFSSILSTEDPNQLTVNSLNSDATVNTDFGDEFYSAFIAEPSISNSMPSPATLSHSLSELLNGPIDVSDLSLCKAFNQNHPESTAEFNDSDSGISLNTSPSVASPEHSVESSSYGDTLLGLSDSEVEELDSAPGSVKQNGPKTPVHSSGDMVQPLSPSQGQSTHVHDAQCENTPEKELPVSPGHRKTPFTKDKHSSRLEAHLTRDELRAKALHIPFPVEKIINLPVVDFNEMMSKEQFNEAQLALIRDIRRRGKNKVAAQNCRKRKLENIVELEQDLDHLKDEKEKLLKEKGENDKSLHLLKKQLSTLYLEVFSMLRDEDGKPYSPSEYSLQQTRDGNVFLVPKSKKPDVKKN
Protocol: A549 HiBiT-Nrf2 cells (Promega, Cat. No. CS3023219) were seeded into 384-well plates at cell density of 5,000 cells/well in 40 μL of cell culture medium (Ham's F-12 Nutrient Mix supplemented with 10% FBS and 1% antibiotic-antimycotic).
The next day, cells were treated with representative Compounds of the Disclosure and incubated for 6 h and 20 h at 37° C., 5% CO2. Staurosporine was used as a control.
At the end of incubation Nrf2 degradation (HiBiT readout) and cell viability (CellTiter-Glo readout) were determined. For HiBiT readout, Nano-Glo HiBiT Reagent mix (Promega, Cat. No. N3050) was added to wells, plates were incubated 2 min on an orbital shaker and incubated at room temperature in the dark for additional 30 minutes. At the end of incubation luminescence was measured using ultrasensitive luminescence mode (Envision, Perkin Elmer).

[1] = 6 h, read-out: DC50 (nM) at 6 h
[2] = 20 h, read-out: DC50 (nM) at 20 h

IC50 (A549) | IC50 (LK-2; Homo sapiens, LK-2, 72 h) | DC50 (Nrf2; [1]) | DC50 (Nrf2; [2]) | IC50 (LK-2) | SMILES
0.1 µM | 0.04 µM | 300 to 3000 nM | > 3000 nM | – | Cc1ccccc1C(=O)N1CCc2cc(-c3nc(NC(=O)Cc4cccc(OCCOCCOc5ccc6c(c5)C(=O)N(C5CCC(=O)NC5=O)C6=O)c4)sc3C)ccc21 (stereo not drawn) [Cpd. No. 18, 2-(3-(2-(2-((2-(2,6-dioxopiperidin-3-yl)-1,3-dioxoisoindolin-5-yl)oxy)ethoxy)ethoxy)phenyl)-N-(5-methyl-4-(1-(2-methylbenzoyl)indolin-5-yl)thiazol-2-yl)acetamide]
0.3 µM | 0.06 µM | 300 to 3000 nM | 300 to 3000 nM | – | Cc1ccccc1C(=O)N1CCc2cc(-c3nc(NC(=O)Cc4cccc(OCCOCCNc5ccc6c(c5)C(=O)N(C5CCC(=O)NC5=O)C6=O)c4)sc3C)ccc21 (stereo not drawn) [Cpd. No. 20, 2-(3-(2-(2-((2-(2,6-dioxopiperidin-3-yl)-1,3-dioxoisoindolin-5-yl)amino)ethoxy)ethoxy)phenyl)-N-(5-methyl-4-(1-(2-methylbenzoyl)indolin-5-yl)thiazol-2-yl)acetamide]
0.09 µM | 0.02 µM | – | – | – | Cc1sc(NC(=O)Cc2cccc(OCCOCCNc3ccc4c(c3)C(=O)N(C3CCC(=O)NC3=O)C4=O)c2)nc1-c1ccc2c(c1)CCN2C(=O)c1cncn1C (stereo not drawn) [Cpd. No. 23, 2-(3-(2-(2-((2-(2,6-dioxopiperidin-3-yl)-1,3-dioxoisoindolin-5-yl)amino)ethoxy)ethoxy)phenyl)-N-(5-methyl-4-(1-(1-methyl-1H-imidazole-5-carbonyl)indolin-5-yl)thiazol-2-yl)acetamide]
0.08 µM | 0.03 µM | < 300 nM | < 300 nM | – | Cc1sc(NC(=O)Cc2ccc(F)c(OCCOCCNc3ccc4c(c3)C(=O)N(C3CCC(=O)NC3=O)C4=O)c2)nc1-c1ccc2c(c1)CCN2C(=O)C1CC1 (stereo not drawn) [Cpd. No. 27, N-(4-(1-(cyclopropanecarbonyl)indolin-5-yl)-5-methylthiazol-2-yl)-2-(3-(2-(2-((2-(2,6-dioxopiperidin-3-yl)-1,3-dioxoisoindolin-5-yl)amino)ethoxy)ethoxy)-4-fluorophenyl)acetamide]
0.03 µM | 0.01 µM | < 300 nM | < 300 nM | – | Cc1sc(NC(=O)Cc2ccc(F)c(OCCOCCNc3ccc4c(c3)CN(C3CCC(=O)NC3=O)C4=O)c2)nc1-c1ccc2c(c1)CCN2C(=O)C1CC1 (stereo not drawn) [Cpd. No. 28, N-(4-(1-(cyclopropanecarbonyl)indolin-5-yl)-5-methylthiazol-2-yl)-2-(3-(2-(2-((2-(2,6-dioxopiperidin-3-yl)-1-oxoisoindolin-5-yl)amino)ethoxy)ethoxy)-4-fluorophenyl)acetamide]
0.05 µM | 0.01 µM | < 300 nM | < 300 nM | 0.02 µM | Cc1sc(NC(=O)Cc2ccc(F)c(OCCOCCNc3ccc4c(c3)C(=O)N(C3CCC(=O)NC3=O)C4=O)c2)nc1-c1ccc2c(c1)CCN2C(=O)c1cncn1C (stereo not drawn) [Cpd. No. 29, 2-(3-(2-(2-((2-(2,6-dioxopiperidin-3-yl)-1,3-dioxoisoindolin-5-yl)amino)ethoxy)ethoxy)-4-fluorophenyl)-N-(5-methyl-4-(1-(1-methyl-1H-imidazole-5-carbonyl)indolin-5-yl)thiazol-2-yl)acetamide]
0.2 µM | 0.04 µM | – | – | – | Cc1sc(C(=O)NCc2cccc(OCCOCCNc3ccc4c(c3)C(=O)N(C3CCC(=O)NC3=O)C4=O)c2)nc1-c1ccc2c(c1)CCN2C(=O)C1CC1 (stereo not drawn) [Cpd. No. 38, 4-(1-(cyclopropanecarbonyl)indolin-5-yl)-N-(3-(2-(2-((2-(2,6-dioxopiperidin-3-yl)-1,3-dioxoisoindolin-5-yl)amino)ethoxy)ethoxy)benzyl)-5-methylthiazole-2-carboxamide]
> 30 µM | > 30 µM | – | – | – | Cc1sc(C(=O)Nc2cccc(OCCOCCNc3ccc4c(c3)C(=O)N(C3CCC(=O)NC3=O)C4=O)c2)nc1-c1ccc2c(c1)CCN2C(=O)C1CC1 (stereo not drawn) [Cpd. No. 39, 4-(1-(cyclopropanecarbonyl)indolin-5-yl)-N-(3-(2-(2-((2-(2,6-dioxopiperidin-3-yl)-1,3-dioxoisoindolin-5-yl)amino)ethoxy)ethoxy)phenyl)-5-methylthiazole-2-carboxamide]
> 30 µM | > 30 µM | – | – | – | Cc1ccccc1C(=O)N1CCc2cc(-c3nc(NC(=O)Cc4cccc(OCCCN5CCN(c6ccc7c(c6)C(=O)N(C6CCC(=O)NC6=O)C7=O)CC5)c4)sc3C)ccc21 (stereo not drawn) [compound 25, 2-(3-(3-(4-(2-(2,6-dioxopiperidin-3-yl)-1,3-dioxoisoindolin-5-yl)piperazin-1-yl)propoxy)phenyl)-N-(5-methyl-4-(1-(2-methylbenzoyl)indolin-5-yl)thiazol-2-yl)acetamide]

SMILES | IC50 (A549) | IC50 (LK-2; Homo sapiens, LK-2, 72 h) | DC50 (Nrf2; [1]) | DC50 (Nrf2; [2]) | IC50 (LK-2)
Cc1ccccc1C(=O)N1CCc2cc(-c3nc(NC(=O)Cc4cccc(OCCCCN5CCN(c6ccc7c(c6)C(=O)N(C6CCC(=O)NC6=O)C7=O)CC5)c4)sc3C)ccc21 (stereo not drawn) [Cpd. No. 26, 2-(3-(4-(4-(2-(2,6-dioxopiperidin-3-yl)-1,3-dioxoisoindolin-5-yl)piperazin-1-yl)butoxy)phenyl)-N-(5-methyl-4-(1-(2-methylbenzoyl)indolin-5-yl)thiazol-2-yl)acetamide] | > 30 µM | 0.8 µM | – | – | –
Cc1ccccc1C(=O)N1CCc2cc(-c3nc(NC(=O)Cc4cccc(OCCCCN5CCN(c6cccc7c6C(=O)N(C6CCC(=O)NC6=O)C7=O)CC5)c4)sc3C)ccc21 (stereo not drawn) [Cpd. No. 33, 2-(3-(4-(4-(2-(2,6-dioxopiperidin-3-yl)-1,3-dioxoisoindolin-4-yl)piperazin-1-yl)butoxy)phenyl)-N-(5-methyl-4-(1-(2-methylbenzoyl)indolin-5-yl)thiazol-2-yl)acetamide] | > 30 µM | > 30 µM | – | – | –
